What all share (assay): receptor binding assay (NIMH PDSP)
For one experiment, the target named is T1, 5-HT5A (Homo sapiens, UniProt P47898).
T1 construct: gene HTR5A; cloned receptor, NIMH PDSP panel
The source says: receptor binding assay (NIMH PDSP) on 5-HT5A

The target of the next experiment is T2, 5-HT1B (Homo sapiens, UniProt P28222).
T2 construct: gene HTR1B; cloned receptor, NIMH PDSP panel
An excerpt: receptor binding assay (NIMH PDSP) on 5-HT1B

In another experiment the target is T3, 5-HT7 (Homo sapiens, UniProt P34969).
T3 construct: gene HTR7; cloned receptor, NIMH PDSP panel
The source says:
receptor binding assay (NIMH PDSP) on 5-HT7

A further experiment deals with T4, 5-HT1D (Homo sapiens, UniProt P28221).
T4 construct: gene HTR1D; cloned receptor, NIMH PDSP panel
An excerpt:
receptor binding assay (NIMH PDSP) on 5-HT1D

For another experiment, the target named is T5, 5-HT1E (Homo sapiens, UniProt P28566).
T5 construct: gene HTR1E; cloned receptor, NIMH PDSP panel
An excerpt: receptor binding assay (NIMH PDSP) on 5-HT1E

The next experiment has as its target T6, 5-HT6 (Homo sapiens, UniProt P50406).
T6 construct: gene HTR6; cloned receptor, NIMH PDSP panel
The source says: receptor binding assay (NIMH PDSP) on 5-HT6

Another experiment concerns the target T7, 5-HT1A (Homo sapiens, UniProt P08908).
T7 construct: gene HTR1A; cloned receptor, NIMH PDSP panel
T7 sequence (P08908 1-422): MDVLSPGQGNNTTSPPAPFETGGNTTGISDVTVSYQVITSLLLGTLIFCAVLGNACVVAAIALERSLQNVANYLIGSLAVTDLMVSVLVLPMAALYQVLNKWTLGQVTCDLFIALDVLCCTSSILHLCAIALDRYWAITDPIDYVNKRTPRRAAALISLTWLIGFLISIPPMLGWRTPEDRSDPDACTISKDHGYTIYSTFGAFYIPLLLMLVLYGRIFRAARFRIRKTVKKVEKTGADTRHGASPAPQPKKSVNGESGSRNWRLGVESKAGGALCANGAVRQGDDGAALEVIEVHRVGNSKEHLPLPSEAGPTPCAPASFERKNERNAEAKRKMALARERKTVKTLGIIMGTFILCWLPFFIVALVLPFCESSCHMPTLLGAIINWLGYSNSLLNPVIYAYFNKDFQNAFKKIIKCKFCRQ
The source says: receptor binding assay (NIMH PDSP) on 5-HT1A

The next experiment concerns the target T8, 5-HT2B (Homo sapiens, UniProt P41595).
T8 construct: gene HTR2B; cloned receptor, NIMH PDSP panel

Like-named read-outs stand apart in the source and are kept apart here.

T3 sequence (P34969 whole entry): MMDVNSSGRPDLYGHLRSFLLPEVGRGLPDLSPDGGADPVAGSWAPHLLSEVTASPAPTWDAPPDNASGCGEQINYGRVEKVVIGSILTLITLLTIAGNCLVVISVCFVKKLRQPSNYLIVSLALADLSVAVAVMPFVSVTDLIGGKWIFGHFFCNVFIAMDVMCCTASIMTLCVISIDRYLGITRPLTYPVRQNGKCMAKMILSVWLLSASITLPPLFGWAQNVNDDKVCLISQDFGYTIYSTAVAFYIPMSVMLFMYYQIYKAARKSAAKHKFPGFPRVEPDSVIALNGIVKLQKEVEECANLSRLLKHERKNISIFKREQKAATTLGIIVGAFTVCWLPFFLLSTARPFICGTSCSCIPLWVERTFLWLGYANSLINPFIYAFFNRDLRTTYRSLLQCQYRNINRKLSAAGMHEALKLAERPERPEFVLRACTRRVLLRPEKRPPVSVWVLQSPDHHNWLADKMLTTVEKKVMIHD
T4 sequence (P28221 whole entry): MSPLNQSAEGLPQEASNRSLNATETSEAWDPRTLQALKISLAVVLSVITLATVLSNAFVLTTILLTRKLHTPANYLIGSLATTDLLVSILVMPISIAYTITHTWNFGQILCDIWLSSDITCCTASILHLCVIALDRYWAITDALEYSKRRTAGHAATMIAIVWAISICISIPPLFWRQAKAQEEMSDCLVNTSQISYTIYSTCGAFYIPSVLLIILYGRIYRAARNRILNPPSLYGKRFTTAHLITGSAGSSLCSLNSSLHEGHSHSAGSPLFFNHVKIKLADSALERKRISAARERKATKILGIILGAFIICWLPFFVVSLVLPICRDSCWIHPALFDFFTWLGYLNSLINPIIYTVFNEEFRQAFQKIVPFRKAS
T1 sequence (P47898 whole entry): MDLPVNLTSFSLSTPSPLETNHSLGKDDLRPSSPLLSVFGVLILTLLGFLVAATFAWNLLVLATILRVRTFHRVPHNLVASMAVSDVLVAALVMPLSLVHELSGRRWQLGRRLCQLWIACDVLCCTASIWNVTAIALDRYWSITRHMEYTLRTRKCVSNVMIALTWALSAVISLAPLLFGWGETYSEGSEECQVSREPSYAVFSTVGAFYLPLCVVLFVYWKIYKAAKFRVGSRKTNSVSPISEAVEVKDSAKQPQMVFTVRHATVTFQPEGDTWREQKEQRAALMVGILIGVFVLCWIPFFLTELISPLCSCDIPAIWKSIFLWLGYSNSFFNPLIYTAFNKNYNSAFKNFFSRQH
T6 sequence (P50406 whole entry): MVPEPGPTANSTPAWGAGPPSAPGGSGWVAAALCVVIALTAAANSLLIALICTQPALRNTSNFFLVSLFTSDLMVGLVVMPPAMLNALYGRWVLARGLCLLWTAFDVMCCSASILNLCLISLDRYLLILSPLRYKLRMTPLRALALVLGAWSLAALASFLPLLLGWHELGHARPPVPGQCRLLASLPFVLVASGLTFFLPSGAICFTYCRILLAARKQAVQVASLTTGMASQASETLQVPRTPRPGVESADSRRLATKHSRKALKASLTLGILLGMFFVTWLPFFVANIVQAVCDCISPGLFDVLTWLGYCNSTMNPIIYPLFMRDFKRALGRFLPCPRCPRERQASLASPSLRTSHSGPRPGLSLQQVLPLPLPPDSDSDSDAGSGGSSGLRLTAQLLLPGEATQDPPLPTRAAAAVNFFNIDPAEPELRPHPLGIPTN
T5 sequence (P28566 whole entry): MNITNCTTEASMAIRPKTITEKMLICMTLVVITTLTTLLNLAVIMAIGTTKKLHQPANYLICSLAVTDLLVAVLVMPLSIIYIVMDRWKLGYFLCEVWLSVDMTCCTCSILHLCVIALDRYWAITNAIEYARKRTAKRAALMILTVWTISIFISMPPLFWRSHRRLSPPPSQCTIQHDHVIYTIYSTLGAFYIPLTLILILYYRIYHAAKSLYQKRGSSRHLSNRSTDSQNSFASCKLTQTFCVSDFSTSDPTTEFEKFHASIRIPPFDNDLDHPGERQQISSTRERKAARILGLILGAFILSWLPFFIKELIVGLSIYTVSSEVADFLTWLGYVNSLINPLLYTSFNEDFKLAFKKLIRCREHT
T2 sequence (P28222 whole entry): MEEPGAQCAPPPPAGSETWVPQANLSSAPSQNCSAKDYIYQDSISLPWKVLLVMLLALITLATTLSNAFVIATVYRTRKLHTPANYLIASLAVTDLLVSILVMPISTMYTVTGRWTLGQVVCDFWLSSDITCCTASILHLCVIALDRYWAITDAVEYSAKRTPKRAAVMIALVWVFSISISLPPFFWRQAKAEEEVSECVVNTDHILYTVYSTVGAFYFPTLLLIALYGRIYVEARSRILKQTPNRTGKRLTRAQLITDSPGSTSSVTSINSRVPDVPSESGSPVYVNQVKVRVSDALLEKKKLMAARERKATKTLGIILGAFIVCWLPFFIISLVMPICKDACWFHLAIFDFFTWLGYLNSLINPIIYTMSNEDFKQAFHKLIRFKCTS
T8 sequence (P41595 whole entry): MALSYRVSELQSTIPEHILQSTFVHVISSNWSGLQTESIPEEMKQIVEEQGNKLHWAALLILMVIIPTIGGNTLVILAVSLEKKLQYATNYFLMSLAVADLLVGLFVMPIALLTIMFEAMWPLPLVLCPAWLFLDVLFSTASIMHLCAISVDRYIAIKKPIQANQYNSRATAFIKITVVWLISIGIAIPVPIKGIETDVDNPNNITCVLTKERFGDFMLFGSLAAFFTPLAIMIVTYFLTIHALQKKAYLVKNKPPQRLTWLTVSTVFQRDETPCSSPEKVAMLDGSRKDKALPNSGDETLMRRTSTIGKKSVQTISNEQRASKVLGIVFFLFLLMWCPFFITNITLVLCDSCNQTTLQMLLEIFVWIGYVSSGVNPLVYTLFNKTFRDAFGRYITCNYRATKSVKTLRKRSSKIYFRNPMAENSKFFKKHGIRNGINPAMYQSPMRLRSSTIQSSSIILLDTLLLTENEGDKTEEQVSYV

For the compound `CN(C)CCc1c[nH]c2ccccc12` [2a, 2-(1H-indol-3-yl)-N,N-dimethylethanamine], the Ki at 5-HT5A is greater than 10000 nM; on 5-HT1B it was 66 ± 9 nM; on 5-HT7 it was 77 ± 16 nM; at 5-HT1D it was 29.3 ± 3.7 nM; on 5-HT1E, greater than 10000 nM; on 5-HT6, 189 ± 32.5 nM.

Take “2-(1H-indol-3-yl)-N,N-dimethylethanamine [2a]”: the inhibitory constant (Ki) at 5-HT1A (read-out: Compound 2a Ki) worked out at 110 ± 17 nM.

Take `CN(C)CCc1c[nH]c2ccc(I)cc12` [2e, 2-(5-iodo-1H-indol-3-yl)-N,N-dimethylethanamine]: the Ki is 130 ± 16 nM at 5-HT1A; 1250 nM at 5-HT5A; 43 ± 5 nM at 5-HT1B; 116 ± 13 nM on 5-HT7; 8.5 ± 1.38 nM on 5-HT1D; 310 ± 33 nM on 5-HT1E. In addition, the Ki at 5-HT2B worked out at 98 ± 4 nM; at 5-HT6, 198 ± 20 nM.

By Ki is commonly meant the dissociation constant of the complex between target and ligand, obtained from inhibition or displacement.

The values are drawn from publication PMC5577603, “Marine Inspired 2-(5-Halo-1H-indol-3-yl)-N,N-dimethylethanamines as Modulators of Serotonin Receptors: An Example Illustrating the Power of Bromine as Part of the Uniquely Marine Chemical Space” (Marine Drugs, 2017).
